# Measurements as given in patent US20110281950A1, “COMPOSITIONS AND METHODS FOR REDUCING PROLIFERATION AND VIABILITY OF LYMPHOBLASTOID CELLS” (priority 2010, published 2011).
# Like-named read-outs stand apart in the source and are kept apart here.
# Assays:
# Assay type in all cases: cell-based
# [1] = test system: EBV-specific CD8+ T-cells; assay: EBV-specific T-cell expansion, RAK tetramer (Example 2A); conditions: 100, 250, 500 nM, two weeks co-culture with irradiated LCLs
# Protocol: The effect of AR-42 on EBV-specific T-cell expansion was determined. Irradiated LCLs were added to purified PBMCs and maintained in co-culture for two weeks with AR-42 (100 nM, 250 nM, 500 nM). After two weeks, the EBV-specific T-cell expansion was measured using the RAK tetramer. This tetramer contains the […] peptide which binds the HLA-B8 MHC type I epitope, and can be used to identify EBV-specific (BZLF1 specific) CD8+ T-cells.
# LCLs (C7M3, DC9) = assay: Viability and proliferation of lymphoblastoid cell lines (Example 1A); conditions: 100, 250, 500, 750 and 1000 nM
# Protocol: The effects of AR-42 on the viability and proliferation of lymphoblastoid cell lines was determined. […] Cell viability was analyzed by annexin/PI staining and flow cytometry. Cell counts were measured at day 5. The results are seen in FIGS. 14A and 14B. In FIGS. 14A and 14B, the standard deviation represents the results from triplicate experiments.
# Purified NK cells [2] = assay: NK cell IFNγ and GzB ELISPOT (Example 5); conditions: for NK cell GzB, ELISPOT: untreated control 91 spots; for NK cell IFNγ, ELISPOT: untreated control 314 spots
# Protocol: Purified NK cells were initially treated overnight (NK) with 100 nM, 250 nM or 500 nM AR-42. The NK cells were further stimulated using inflammatory cytokines cytokines IL-2 (50 pM) and IL-12 (10 ng/ml) in an ELISPOT assay to determine IFNγ and GzB secretion potentials. Results were quantified by an ELISPOT analyzer.
# [3] = test system: peripheral blood mononuclear cells (PBMCs); assay: PBMC viability, PI staining and flow cytometry (Example 9); conditions: 100, 250, 500, 1000 nM, 2 and 4 days
# Protocol: The effect of AR-42 on the viability of peripheral blood mononuclear cells (PBMCs) was determined. PBMCs were isolated from three random donor leukopaks and incubated with AR-42 (100 nM, 250 nM, 500 nM, 1000 nM) for 2 and 4 days. Viability was assessed by PI staining using flow cytometry. All results were normalized relative to untreated DMSO controls. […] The standard deviations in FIG. 15 represent the mean of the three leukopaks.
# [4] = test system: EBV+ transformed B lymphoblastoid cell lines (EBV+ LCL); assay: Viability of EBV+ LCL cultured with HDAC inhibitors, annexin/PI staining and flow cytometry (Example 1)
# Protocol: Cell viability was then analyzed every 24 hours by annexin/PI staining and flow cytometry.
# [5] = test system: NK cell-driven antibody dependent cellular cytotoxicity (ADCC) against target B cells; assay: NK cell-driven ADCC, four hour 51Cr release assay (Example 3)
# Protocol: (§1) The effects of AR-42 on EBV-specific cytotoxic T cell (CTL) cytotoxicity were assessed in vitro. Peripheral blood mononuclear cells (PBMC) and autologous EBV+ LCL were co-culturing in media containing IL-2 (50 μM) and either DSMO (control) or AR-42 (100 nM). EBV-specific CTLs were identified with anti-CD8 mAb and HLAB8-RAK tetramer, upon a 12 day expansion, the results of which are shown in FIG. 10. […] At day 13, the EBV-specific CTLs were incubated overnight in 100, 250, & 500 nM AR-42+IL-2 (50 μM). The next day, a four hour ^51Cr release assay was performed on each incubated sample in order to access the effects of AR-42 on EBV-specific cytotoxic T cell (CTL) cytotoxicity. This is shown schematically in FIG. 2, which illustrates autologous target EBV+ LCLs are labeled with ^51Cr, which is actively internalized by each cell via pumps in its membrane; effector CTLs are counted and plated at desired effector-target ratios; labeled targets are incubated with effectors for four hours; and lysed targets release intracellular ^51Cr into the supernatant, which is harvested and analyzed for radioactivity using a gamma counter. Effector-target ratios of 50:1, 25:1, and 12.5:1 were used.
# The effects of AR-42 on NK cell-driven antibody dependent cellular cytotoxicity (ADCC) were assessed in vitro. NK cells were treated overnight with AR-42 (100 nM, 250 nM, 500 nM) or Rituximab (anti-CD20) or Herceptin (anti-erbB2). Rituximab (anti-CD20) was the antibody of choice for the assay because of its wide clinical use and proven efficacy against B cell lymphomas that express CD20 antigen. Herceptin (anti-erbB2), a commonly used breast cancer drug, was used as a negative control. The effect of AR-42 on NK cell-driven antibody dependent cellular cytotoxicity (ADCC) was assessed using a four hour ^51Cr release assay. The four hour ^51Cr release assay was performed as described with respect to Example 2A, except that effector-target ratios of 25:1, 12.5:1, & 6.25:1 were used.
# [6] = test system: EBV-specific cytotoxic T cell (CTL) cytotoxicity against autologous EBV+ LCLs; assay: EBV-specific CTL cytotoxicity, four hour 51Cr release assay (Example 2)
# Protocol: as §1
# Purified NK cells [7] = assay: NK cell IFNγ ELISPOT, continuous treatment or washout (Example 7); conditions: control 569 spots
# Source text: (§2) Purified NK cells in DMSO were used as a control. The cells were subsequently analyzed in an IFNγ ELISPOT assay or a ^51Cr release cytotoxicity assay.
# [8] = test system: Activated EBV-specific T cells; assay: T cell ELISPOT with and without AR-42 washout (Example 6); conditions: long-term exposure, 500 nM
# Protocol: Activated EBV-specific T cells expanded in the presence of AR-42 were further incubated in media with and without AR-42. After 5 days, the T cells were stimulated with EBV+ LCLs in an ELISPOT assay to determine IFNγ and GzB secretion potentials.
# purified CD56+ NK cells = assay: Cell surface protein expression on NK cells, flow cytometry (Example 8); conditions: 24 hours; for expression of activating NK cell receptor NKG2D: AR-42 100, 500 nM, SAHA 100, 1000 nM
# Source text: The mechanism by which HDAC inhibition affects NK cell-driven ADCC was investigated in vitro. […] Viable cells were then collected and stained with monoclonal antibodies specific for cell surface proteins with known stimulatory (NKG2D, FcγRIII) or inhibitory (KIR) activity. Protein expression was then quantified via flow cytometry.
# EBV+ LCLs = assay: Cell surface protein expression on EBV+ LCLs, flow cytometry (Example 8)
# [9] = test system: Activated EBV-specific T cells; assay: T cell IFNγ and GzB ELISPOT (Example 4); conditions: 4 days; for T cell IFNγ secretion, ELISPOT: untreated control 98 spots; for T cell GzB secretion, ELISPOT: untreated control 107 spots
# Protocol: The production of proteins associated with the T cell cytotoxic response (interferon-γ, granzyme B) was determined in vitro. Activated EBV-specific T cells were initially treated for 4 days (T) with 100 nM or 500 nM AR-42 and further stimulated with EBV+ LCLs (effector-target ratio: 1:1) in an ELISPOT assay to determine IFNγ and GzB secretion potentials. Release of interferon-gamma (IFNγ) or granzyme B (GzB) was visualized using monoclonal IFNγ/GzB antibodies with BCIP/NBT substrate solution. Results were quantified by an enzyme-linked immunosorbent spot assay (ELISPOT) analyzer.
# Purified NK cells [10] = assay: NK cell 51Cr release cytotoxicity assay, continuous treatment or washout (Example 7); conditions: control 64%
# Source text: as §2
compound,measurement,setting,value
"CC(C)C(C(=O)Nc1ccc(C(=O)NO)cc1)c1ccccc1 (stereo not drawn) [AR-42, N-hydroxy-4-(3-methyl-2-phenyl-butyrylamino)-benzamide]",EBV-specific T-cell expansion,[1],decreases EBV-specific T-cell expansion in a dose dependent manner
same,antiproliferative activity in EBV+ LCL cell lines,"LCLs (C7M3, DC9)",antiproliferative activity in EBV+ LCL cell lines in a dose dependent manner
same,"NK cell GzB, ELISPOT",Purified NK cells [2]; 100 nM overnight,22 spots
same,"NK cell IFNγ, ELISPOT",Purified NK cells [2]; 100 nM overnight,63 spots
same,"NK cell GzB, ELISPOT",Purified NK cells [2]; 250 nM overnight,7 spots
same,"NK cell IFNγ, ELISPOT",Purified NK cells [2]; 250 nM overnight,10 spots
same,"NK cell GzB, ELISPOT",Purified NK cells [2]; 500 nM overnight,10 spots
same,"NK cell IFNγ, ELISPOT",Purified NK cells [2]; 500 nM overnight,1 spots
same,viability of PBMCs,[3],decreases the viability of PBMCs in a dose dependent manner
same,concentration that inhibits EBV+ LCL growth,[4],≥ 250 nM
same,viability at day 4 compared with day 2,[4]; 750 and 1000 nM,higher viability by day 4
same,viability at 0.25 µM,"[4]; Lymphoblastoid cell, 48 h, 250 nM, day 2, read-out: viability of B cell population",87%
same,viability at 0.5 µM,"[4]; Lymphoblastoid cell, 48 h, 500 nM, day 2, read-out: viability of B cell population",75%
same,viability at 0.75 µM,"[4]; Lymphoblastoid cell, 48 h, 750 nM, day 2, read-out: viability of B cell population",62%
same,viability at 1 µM,"[4]; Lymphoblastoid cell, 48 h, 1000 nM, day 2, read-out: viability of B cell population",54%
same,NK cytotoxicity (ADCC) in combination with rituximab,"[5]; 100 nM overnight, highest effector-target ratio (25:1)",36%
same,NK cytotoxicity (ADCC) in combination with rituximab,"[5]; 250 nM overnight, highest effector-target ratio (25:1)",23%
same,NK cytotoxicity (ADCC) in combination with rituximab,[5]; 500 nM overnight,1.1%
same,CTL cytotoxicity,"[6]; 100 nM overnight, highest effector-target ratio (50:1)",19%
same,CTL cytotoxicity,"[6]; 250 nM overnight, highest effector-target ratio (50:1)",12%
same,CTL cytotoxicity,[6]; 500 nM overnight,−2%
same,"NK cell IFNγ secretion, ELISPOT",Purified NK cells [7]; AR-42 100 nM treated,207 spots
same,"NK cell IFNγ secretion, ELISPOT","Purified NK cells [7]; AR-42 100 nM, 24 hour treatment+24 hour washout",418 spots
same,"NK cell IFNγ secretion, ELISPOT",Purified NK cells [7]; AR-42 250 nM treated,10 spots
same,"NK cell IFNγ secretion, ELISPOT","Purified NK cells [7]; AR-42 250 nM, 24 hour treatment+24 hour washout",235 spots
same,"NK cell IFNγ secretion, ELISPOT",Purified NK cells [7]; AR-42 500 nM treated,6 spots
same,"NK cell IFNγ secretion, ELISPOT","Purified NK cells [7]; AR-42 500 nM, 24 hour treatment+24 hour washout",96 spots
same,cytotoxic function of activated T cells,[8],eventual loss of cytotoxic function
same,expression of inhibitory receptor KIR on NK cells,purified CD56+ NK cells; especially at 500 nM,down modulates
same,expression of activating NK cell receptor NKG2D,purified CD56+ NK cells,down modulate
same,Mic A/B (NKG2D ligand) expression on EBV+ LCLs,"EBV+ LCLs; 500 nM and 1000 nM, 24 and 48 hours",unaffected
same,MHC Class I expression (KIR ligand) on EBV+ LCLs,"EBV+ LCLs; higher concentrations (500 nM and 1000 nM, 24 and 48 hours)",down modulates
same,"T cell IFNγ secretion, ELISPOT",[9]; 100 nM,47 spots
same,"T cell GzB secretion, ELISPOT",[9]; 100 nM,99 spots
same,"T cell IFNγ secretion, ELISPOT",[9]; 500 nM,3 spots
same,"T cell GzB secretion, ELISPOT",[9]; 500 nM,5 spots
same,NK cytotoxic activity,"Purified NK cells [10]; 100 nM treated, max E:T ratio",36%
same,NK cytotoxic activity,"Purified NK cells [10]; 100 nM, washout",41%
same,NK cytotoxic activity,"Purified NK cells [10]; 250 nM treated, max E:T ratio",23%
same,NK cytotoxic activity,"Purified NK cells [10]; 250 nM, washout",36%
same,NK cytotoxic activity,"Purified NK cells [10]; 500 nM treated, max E:T ratio",1%
same,NK cytotoxic activity,"Purified NK cells [10]; 500 nM, washout",42%
"CCCC(CCC)C(=O)O [valproate, reference compound]",viability at 2000 µM,"[4]; Lymphoblastoid cell, 72 h, 2.0 mM, day 3, read-out: viability of B cell population",83%
same,viability at 3000 µM,"[4]; Lymphoblastoid cell, 72 h, 3 mM, day 3, read-out: viability of B cell population",73%
same,viability at 4000 µM,"[4]; Lymphoblastoid cell, 72 h, 4.0 mM, day 3, read-out: viability of B cell population",63%
same,viability at 4000 µM,"[4]; Lymphoblastoid cell, 96 h, 4 mM, day 4, read-out: viability of B cell population",71%
same,"NK cell IFNγ secretion, ELISPOT",Purified NK cells [7]; valproate 1 mM,446 spots
same,"NK cell IFNγ secretion, ELISPOT",Purified NK cells [7]; valproate 2 mM,238 spots
"O=C(CCCCCCC(=O)Nc1ccccc1)NO [SAHA, suberoylanilide hydroxamic acid, reference compound]",B cell death,"[4]; 250-2000 nM, 4 day incubation",little cell death
same,viability at 4 µM,"[4]; Lymphoblastoid cell, 96 h, 4000 nM, day 4, read-out: viability of B cell population",69%
same,"NK cell IFNγ secretion, ELISPOT",Purified NK cells [7]; SAHA 100 nM treated,452 spots
same,"NK cell IFNγ secretion, ELISPOT",Purified NK cells [7]; SAHA 500 nM treated,366 spots
same,"NK cell IFNγ secretion, ELISPOT",Purified NK cells [7]; SAHA 1000 nM treated,166 spots
same,expression of activating NK cell receptor NKG2D,purified CD56+ NK cells,down modulate
rituximab: anti-CD20 antibody used for the ADCC assay,relative ADCC,"[5]; NK cells not treated with AR-42, effector-target ratio 6.25:1",52%
same,relative ADCC,"[5]; NK cells not treated with AR-42, effector-target ratio 12.5:1",56%
same,relative ADCC,"[5]; NK cells not treated with AR-42, effector-target ratio 25:1",64%
